Results: ChEMBL document CHEMBL1130478, “Mono and bis double ester prodrugs of novel aminomethyl-THF 1-methylcarbapenems” (Bioorg Med Chem Lett, 1997)
In brackets after ≈: the same amount, converted by molar mass.

What was measured:
Assay type in all cases: functional
Mus musculus [1] = experiment: Antibacterial activity against Escherichia coli (311) infection in mice after single oral dose, activity expressed as ED50
Mus musculus [2] = experiment: Antibacterial activity against Escherichia coli (311) infection in mice after single subcutaneous dose, activity expressed as ED50; conditions: sc
[3] = system: Acinetobacter calcoaceticus; experiment: In vitro antibacterial activity against Acinetobacter calcoaceticus (GC 756) following preincubation in mouse serum
Citrobacter freundii [4] = experiment: In vitro antibacterial activity against C. freundii(GC 2211) following pre-incubation in mouse serum
Citrobacter freundii [5] = experiment: In vitro antibacterial activity against C. freundii(GC 2211) without preincubation in mouse serum
[6] = target: T1, Dipeptidase 1 (Sus scrofa) (UniProt P22412); experiment: Relative hydrolysis by hog Dehydropeptidase
T1 sequence (whole entry): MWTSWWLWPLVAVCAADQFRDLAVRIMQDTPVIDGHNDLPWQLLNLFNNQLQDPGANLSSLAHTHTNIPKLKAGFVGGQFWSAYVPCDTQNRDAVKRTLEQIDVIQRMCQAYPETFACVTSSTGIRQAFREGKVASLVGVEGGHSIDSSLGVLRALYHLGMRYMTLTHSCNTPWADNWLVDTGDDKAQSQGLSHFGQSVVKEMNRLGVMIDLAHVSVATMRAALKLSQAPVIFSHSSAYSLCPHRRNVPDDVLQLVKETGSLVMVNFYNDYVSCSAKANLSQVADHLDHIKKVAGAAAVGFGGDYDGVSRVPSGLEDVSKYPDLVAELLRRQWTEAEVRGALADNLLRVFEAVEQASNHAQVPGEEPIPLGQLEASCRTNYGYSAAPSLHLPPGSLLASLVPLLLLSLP

Enterococcus faecalis [7] = experiment: In vitro antibacterial activity against E. faecalis(GC 842) without pre-incubation in mouse serum
Enterococcus faecalis [8] = experiment: In vitro antibacterial activity against E. faecalis(GC 842) following pre-incubation in mouse serum
Enterobacter cloacae [9] = experiment: In vitro antibacterial activity against E. cloacae(GC 2209) following preincubation in mouse serum
Enterobacter cloacae [10] = experiment: In vitro antibacterial activity against E. cloacae(GC 2209) without pre-incubation in mouse serum
Enterococcus faecium [11] = experiment: In vitro for antibacterial activity against E. faecium(GC 1182) without pre-incubation in mouse serum
Escherichia coli [12] = experiment: In vitro antibacterial activity expressed as MIC against Escherichia coli (ATCC 25922) following pre-incubation in mouse serum
Escherichia coli [13] = experiment: In vitro antibacterial activity expressed as MIC against Escherichia coli (ATCC 25922) without pre-incubation in mouse serum
Escherichia coli [14] = experiment: In vitro antibacterial activity expressed as MIC against E. coli(GC 1792) following pre-incubation in mouse serum
Escherichia coli [15] = experiment: In vitro antibacterial activity expressed as MIC against E. coli(GC 1792) without pre-incubation in mouse serum
Escherichia coli [16] = experiment: In vitro antibacterial activity expressed as MIC against E. coli(GC 2205) following pre-incubation in mouse serum
Escherichia coli [17] = experiment: In vitro antibacterial activity expressed as MIC against E. coli(GC 2205) without pre-incubation in mouse serum
Morganella morganii [18] = experiment: In vitro antibacterial activity against M. morganii(GC 2213) following pre-incubation in mouse serum
Morganella morganii [19] = experiment: In vitro antibacterial activity against M. morganii(GC 2213) without pre-incubation in mouse serum
Pseudomonas aeruginosa [20] = experiment: In vitro antibacterial activity against Pseudomonas aeruginosa (ATCC 27853) following pre-incubation in mouse serum
Pseudomonas aeruginosa [21] = experiment: In vitro antibacterial activity against Pseudomonas aeruginosa (ATCC 27853) without pre-incubation in mouse serum
Pseudomonas aeruginosa [22] = experiment: In vitro antibacterial activity against P. aeruginosa(GC 1544 oprd) without pre-incubation in mouse serum
Staphylococcus aureus [23] = experiment: In vitro antibacterial activity against S aureus(ATCC 29213) following preincubation in mouse serum
Staphylococcus aureus [24] = experiment: In vitro antibacterial activity against S. aureus(ATCC 29213) without pre-incubation in mouse serum
Staphylococcus aureus [25] = experiment: In vitro antibacterial activity against S. aureus(GC 2220 MRSA) without pre-incubation in mouse serum
[26] = system: Stenotrophomonas maltophilia; experiment: In vitro antibacterial activity against X. maltophilia(GC 562) without pre-incubation in mouse serum
Staphylococcus aureus [27] = experiment: In vitro antibacterial activity against S. aureus(GC 2220 MRSA) following pre-incubation in mouse serum
Pseudomonas aeruginosa [28] = experiment: In vitro antibacterial activity against P. aeruginosa(GC 1544 oprd) following pre-incubation in mouse serum
[29] = system: Stenotrophomonas maltophilia; experiment: In vitro antibacterial activity against X. maltophilia(GC 562) following pre-incubation in mouse serum
[30] = system: Acinetobacter calcoaceticus; experiment: In vitro antibacterial activity against Acinetobacter calcoaceticus (GC 756) without preincubation in mouse serum
Enterococcus faecium [31] = experiment: In vitro for antibacterial activity against E. faecium(GC 1182) following pre-incubation in mouse serum

MIC [3] [µg/mL] | MIC (Citrobacter freundii [4]) [µg/mL] | MIC (Citrobacter freundii [5]) [µg/mL] | Relative hydrolysis [6] | MIC (Enterococcus faecalis [7]) [µg/mL] | MIC (Enterococcus faecalis [8]) [µg/mL] | MIC (Enterobacter cloacae [9]) [µg/mL] | MIC (Enterobacter cloacae [10]) [µg/mL] | MIC (Enterococcus faecium [11]) [µg/mL] | MIC (Escherichia coli [12]) [µg/mL] | MIC (Escherichia coli [13]) [µg/mL] | MIC (Escherichia coli [14]) [µg/mL] | MIC (Escherichia coli [15]) [µg/mL] | MIC (Escherichia coli [16]) [µg/mL] | MIC (Escherichia coli [17]) [µg/mL] | MIC (Morganella morganii [18]) [µg/mL] | MIC (Morganella morganii [19]) [µg/mL] | MIC (Pseudomonas aeruginosa [20]) [µg/mL] | Structure (SMILES) | ED50 (Mus musculus [1]) [mg/kg] | ED50 (Mus musculus [2]) [mg/kg] | further results
– | – | – | – | – | – | – | – | – | – | – | – | – | – | – | – | – | – | CC(OC(=O)OC1=CCCCC1)OC(=O)C1=C(S[C@@H]2CCO[C@@H]2CNC(=O)OCOC(=O)C(C)C)[C@H](C)C2[C@@H]([C@@H](C)O)C(=O)N12 (stereo not given in full) | 1.5 | 1.9 | –
– | – | – | – | – | – | – | – | – | – | – | – | – | – | – | – | – | – | CCOC(=O)OCOC(=O)C1=C(S[C@@H]2CCO[C@@H]2CNC(=O)OC(C)OC(=O)C(C)C)[C@H](C)C2[C@@H]([C@@H](C)O)C(=O)N12 (stereo not given in full) | 0.72 | 0.45 | –
8 (≈ 13.3 µM) | 0.5 (≈ 0.83 µM) | > 128 | 20 | 64 (≈ 106 µM) | 4 (≈ 6.64 µM) | 0.25 (≈ 0.415 µM) | > 128 | > 128 | 0.06 (≈ 0.0996 µM) | 128 (≈ 212 µM) | 0.12 (≈ 0.199 µM) | > 128 | 0.12 (≈ 0.199 µM) | 1 (≈ 1.66 µM) | 4 (≈ 6.64 µM) | > 128 | 32 (≈ 53.1 µM) | CCOC(=O)OCOC(=O)C1=C(S[C@@H]2CCO[C@@H]2CNC(=O)OCOC(=O)C(C)(C)C)[C@H](C)C2[C@@H]([C@@H](C)O)C(=O)N12 (stereo not given in full) | 0.96 | 0.73 | MIC (Pseudomonas aeruginosa [21]): > 128 µg/mL; MIC (Pseudomonas aeruginosa [22]): > 128 µg/mL; MIC (Staphylococcus aureus [23]): 0.12 µg/mL (≈ 0.199 µM); MIC (Staphylococcus aureus [24]): 4 µg/mL (≈ 6.64 µM); MIC (Staphylococcus aureus [25]): 64 µg/mL (≈ 106 µM); MIC [26]: > 128 µg/mL; MIC (Staphylococcus aureus [27]): 2 µg/mL (≈ 3.32 µM); MIC (Pseudomonas aeruginosa [28]): 64 µg/mL (≈ 106 µM); MIC [29]: > 128 µg/mL; MIC [30]: > 128 µg/mL; MIC (Enterococcus faecium [31]): > 128 µg/mL
– | – | – | – | – | – | – | – | – | – | – | – | – | – | – | – | – | – | CCCC(=O)OCOC(=O)NC[C@H]1OCC[C@H]1SC1=C(C(=O)OCOC(=O)OCC)N2C(=O)[C@H]([C@@H](C)O)C2[C@H]1C (stereo not given in full) | 1.3 | 0.49 | –
2 | 0.12 | 4 | 5.9 | 2 | 1 | 0.06 | 2 | 128 | < 0.06 | 0.5 | < 0.06 | 0.5 | < 0.06 | < 0.06 | 0.5 | 2 | 8 | CCCC(=O)OCOC(=O)NC[C@H]1OCC[C@H]1SC1=C(C(=O)[O-])N2C(=O)[C@H]([C@@H](C)O)C2[C@H]1C.[Na+] (stereo not given in full) | 3.4 | 0.26 | MIC (Pseudomonas aeruginosa [21]): 64 µg/mL; MIC (Pseudomonas aeruginosa [22]): > 128 µg/mL; MIC (Staphylococcus aureus [23]): 0.03 µg/mL; MIC (Staphylococcus aureus [24]): 0.12 µg/mL; MIC (Staphylococcus aureus [25]): 8 µg/mL; MIC [26]: > 128 µg/mL; MIC (Staphylococcus aureus [27]): 1 µg/mL; MIC (Pseudomonas aeruginosa [28]): 16 µg/mL; MIC [29]: > 128 µg/mL; MIC [30]: 32 µg/mL; MIC (Enterococcus faecium [31]): 64 µg/mL
4 (≈ 6.96 µM) | 0.25 (≈ 0.435 µM) | 128 (≈ 223 µM) | 4.9 | 64 (≈ 111 µM) | 2 (≈ 3.48 µM) | 0.12 (≈ 0.209 µM) | 64 (≈ 111 µM) | > 128 | < 0.06 | 4 (≈ 6.96 µM) | < 0.06 | 8 (≈ 13.9 µM) | 0.06 (≈ 0.104 µM) | 1 (≈ 1.74 µM) | 1 (≈ 1.74 µM) | 32 (≈ 55.7 µM) | 16 (≈ 27.8 µM) | CCOC(=O)OCOC(=O)C1=C(S[C@@H]2CCO[C@@H]2CNC(=O)OC(C)OC(C)=O)[C@H](C)C2[C@@H]([C@@H](C)O)C(=O)N12 (stereo not given in full) | 0.83 | 0.59 | MIC (Pseudomonas aeruginosa [21]): > 128 µg/mL; MIC (Pseudomonas aeruginosa [22]): > 128 µg/mL; MIC (Staphylococcus aureus [23]): 0.03 µg/mL (≈ 0.0522 µM); MIC (Staphylococcus aureus [24]): 8 µg/mL (≈ 13.9 µM); MIC (Staphylococcus aureus [25]): > 128 µg/mL; MIC [26]: > 128 µg/mL; MIC (Staphylococcus aureus [27]): 2 µg/mL (≈ 3.48 µM); MIC (Pseudomonas aeruginosa [28]): 32 µg/mL (≈ 55.7 µM); MIC [29]: > 128 µg/mL; MIC [30]: > 128 µg/mL; MIC (Enterococcus faecium [31]): 128 µg/mL (≈ 223 µM)
– | – | – | – | – | – | – | – | – | – | – | – | – | – | – | – | – | – | C[C@H]1C(S[C@@H]2CCO[C@@H]2CNC(=O)OCOC(=O)c2ccccc2)=C(C(=O)[O-])N2C(=O)[C@H]([C@@H](C)O)C12.[Na+] (stereo not given in full) | 2.9 | 0.32 | –
– | – | – | – | – | – | – | – | – | – | – | – | – | – | – | – | – | – | CC(C)C(=O)OCOC(=O)C1=C(SC2CCOC2CN)[C@H](C)C2[C@@H]([C@@H](C)O)C(=O)N12.CCN(C(C)C)C(C)C (stereo not given in full) | 2.3 | 0.18 | –
– | – | – | 6 | – | – | – | – | – | – | – | – | – | – | – | – | – | – | CC(=O)OC(C)OC(=O)NC[C@H]1OCC[C@H]1SC1=C(C(=O)O)N2C(=O)[C@H]([C@@H](C)O)C2[C@H]1C (stereo not given in full) | – | – | –
4 | 0.25 | 2 | 2.9 | 4 | 1 | 0.06 | 1 | > 128 | < 0.06 | 0.25 | < 0.06 | 0.5 | < 0.06 | 0.12 | 0.5 | 4 | 8 | CC(C)C(=O)OCOC(=O)NC[C@H]1OCC[C@H]1SC1=C(C(=O)[O-])N2C(=O)[C@H]([C@@H](C)O)C2[C@H]1C.[Na+] (stereo not given in full) | 5.1 | 0.59 | MIC (Pseudomonas aeruginosa [21]): 64 µg/mL; MIC (Pseudomonas aeruginosa [22]): > 128 µg/mL; MIC (Staphylococcus aureus [23]): 0.03 µg/mL; MIC (Staphylococcus aureus [24]): 0.25 µg/mL; MIC (Staphylococcus aureus [25]): 8 µg/mL; MIC [26]: > 128 µg/mL; MIC (Staphylococcus aureus [27]): 2 µg/mL; MIC (Pseudomonas aeruginosa [28]): 16 µg/mL; MIC [29]: > 128 µg/mL; MIC [30]: 32 µg/mL; MIC (Enterococcus faecium [31]): 64 µg/mL
